Earlier results, collected in US20220323353A1, “BIODEGRADABLE DRUG-ELUTING EMBOLIC PARTICLES FOR DELIVERY OF THERAPEUTIC AGENTS” (Becton, Dickinson and Company, priority 2019, published 2022).

Test system: hepatocellular carcinoma
Settings: administrated via the hepatic artery

SMILES: COc1cccc2c1C(=O)c1c(O)c3c(c(O)c1C2=O)C[C@@](O)(C(=O)CO)C[C@@H]3O[C@H]1C[C@H](N)[C@H](O)[C@H](C)O1 [doxorubicin]
- antitumor activity in hepatocellular carcinoma patients: antitumor effects and partial response
